US5545637A, “Process for preparing pharmaceutical compositions containing crystalline anhydrous mycophenolate mofetil salts” (Syntex (U.S.A.) Inc., priority 1995, dated 1996)
Structures can show the parent of a compound that is named as a salt. Values belong to the compound of their own block, whether it stands above or below them.

Assays:
Format in all cases: physicochemical
[1] = Comparative solubility of MM salt forms
[2] = Comparative stability of MM salt forms; settings: comparison of salt forms, in words
[3] = Solubility in typical intravenous formulation solutions; settings: viewed over 3 days, typical intravenous formulation solutions (e.g., 5% dextrose solution or water suitable for injection), 4320 min

Structure (SMILES): COc1c(C)c2c(c(O)c1C/C=C(\C)CCC(=O)OCCN1CCOCC1)C(=O)OC2 [crystalline anhydrous salt form of MM]
- increase in solubility over the monohydrate salt form ([1]; anhydrous vs monohydrate salt form): about a two-fold increase in solubility over the monohydrate salt form
- stability [2]: the same stability characteristics of the monohydrate salt form

Structure (SMILES): COc1c(C)c2c(c(O)c1C/C=C(\C)CCC(=O)OCCN1CCOCC1)C(=O)OC2 [MM in its monohydrate salt form]
- stability [2]: more stable than MM in its amorphous salt form

The remaining lines, values ahead:

- solubility characteristics ([1]; amorphous vs monohydrate salt form, in words): better solubility characteristics
Structure (SMILES): COc1c(C)c2c(c(O)c1C/C=C(\C)CCC(=O)OCCN1CCOCC1)C(=O)OC2 [amorphous salt form]

- solubility [3]: approximately 40 mg/ml
Structure (SMILES): COc1c(C)c2c(c(O)c1C/C=C(\C)CCC(=O)OCCN1CCOCC1)C(=O)OC2 [crystalline monohydrate form]

- solubility ([3]; hydrochloride): approximately 84 mg/ml
Structure (SMILES): COc1c(C)c2c(c(O)c1C/C=C(\C)CCC(=O)OCCN1CCOCC1)C(=O)OC2 [2-(4-morpholino)ethyl-(E)-6-(1,3-dihydro-4-hydroxy-6-methoxy-7-methyl-3-oxo-5-isobenzofuranyl)-4-methyl-4-hexenoate hydrochloride]
